Measurements: US10632144B2, “Low polydispersity, low molecular weight biotechnological chondroitin sulfate with anti-inflammatory and antiarthritis activity and use thereof in the prevention of osteoarthritis” (Gnosis S.p.A., priority 2012, dated 2020)

Columns and labels:
C reactive protein (CRP) = test: AA rat model, biotech vs animal LMW-CS: CRP plasma levels; assay type: in vivo, male Lewis rats
Protocol: (§1) As described in Example 5, commercial (high-molecular-weight) chondroitin sulfate material was subjected to depolymerization according to Cho, under controlled condition, until the desired mean MW was reached.
(§2) The product of Example 5 was tested in vivo vs. biotechnological chondroitin of the invention obtained as described in Ex. 4 (equivalent to the product obtained from any of the Examples 1, 2 or 3).
(§3) Two key parameters were analyzed to determine the efficacy of the treatment in reducing the inflammation related to osteoarthritis: C reactive protein (CRP) and interleukin-6 (IL-6) plasma levels. […] CRP is another important marker for systemic inflammation, its plasmatic level rises up during arthritis progression. AA was induced in male Lewis rats with a single intradermal injection of heat-inactivated Mycobacterium butyricum in […] Freund's adjuvant. The following anti-osteoarthritic treatment consisted in daily oral (900 mg/kg b.w.) administrations of LMW-CS starting from day 0, i.e. the day of bacterial inoculation.

Sprague-Dawley rats = test: Acute toxicity after oral administration; assay type: in vivo; conditions: up to 2000 mg/kg body weight
Protocol: (§4) The CS according to the invention was also tested for its toxicological safety in animals and on cell cultures according to various protocols designed to assess its potential genotoxicity at cell level and acute oral toxicity in the rat. All the tests used were validated and conducted according to OECD guidelines for pharmaceutical products.
Finally, acute toxicity after oral administration was examined in Sprague-Dawley rats up to the dose of 2000 mg/kg of body weight.

[1] = test system: rats with Adjuvant Arthritis (AA); test: Adjuvant arthritis (AA) in rats: arthritis score; assay type: in vivo, male Lewis rats; parameters: key to Arthritis score: sum of oedema (1-8), forepaw diameter (1-5), scab diameter (1-5) scores
Protocol: (§5) AA was induced by a single intradermal injection of Mycobacterium butyricum in […] Freund's adjuvant. The study involved one group of healthy animals (HC), one group of untreated arthritic animals (AC) and two groups of arthritic animals treated with two different regimens. The first treatment regimen involved pre-treatment consisting of administration of 900 mg/kg of biotechnological CS a day for 14 days before arthritis was induced, continuing for 28 days after the induction of AA (PT). The second treatment regimen involved the administration of 900 mg/kg of biotechnological CS a day only during the 28 days after induction of AA (T).
(§6) 40 male Lewis rats weighing between 150 and 190 g were divided at random into four groups of 10 animals each, housed in polypropylene cages in an environment maintained at the temperature of 22±2° C., and fed on a standard laboratory diet with unlimited access to water.
(§7) The experimental groups were as follows:
(§8) 3) A group of arthritic rats orally treated with biotechnological CS at the dose of 900 mg/day per kg of body weight for 28 days after induction of AA (days 0-28 of the experiment) (T).
(§9) 4) A group orally pre-treated with biotechnological CS at the dose of 900 mg/day per kg of body weight for 14 days preceding the induction of AA, and for the 28 days after induction of AA (days −14 to 28 of the experiment) (PT).
(§10) The CS of the invention was dissolved in distilled water at the concentration of 20 mg/ml and administered orally as a single daily dose by gavage.
The arthritis score was evaluated by allocating a score to the observation of paw joint swelling (oedema), the extent of periarticular erythema and the diameter of the scab at the adjuvant injection site at the base of the tail. The arthritis score or arthrogram was measured as the sum total of oedema (in ml, score 1 to 8), plus the diameter of the forepaw (in mm, max score 1 to 5), plus the diameter of the scab at the site of application of Mycobacterium butyricum measured parallel to the spinal column (in mm, max score 1 to 5), for each animal.

interleukin-6 (IL-6) = test: AA rat model, biotech vs animal LMW-CS: IL-6 plasma levels; assay type: in vivo, male Lewis rats
Protocol: as §1, §2, §3

[2] = test system: rats with Adjuvant Arthritis (AA); test: Adjuvant arthritis (AA) in rats: hind paw oedema; assay type: in vivo, male Lewis rats
Protocol: as §5, §6, §7, §8, §9, §10
The oedema that developed as a consequence of arthritis was measured by observing the increase in volume of the hind paw with a caliper suitable for the measurement. The measurements were performed before the induction of AA (day 0) and on days 7, 14, 21 and 28 of the study.
The data were expressed as the percentage increase in oedema calculated with the following formula: [(Dayn/Day0)×100]−100, Day0 being the measurement on the initial day and Dayn the measurement on the day considered.

[3] = test system: auxotrophic strains of E. coli; test: Bacterial reverse mutation test (OECD 471); assay type: cell-based
Protocol: as §4
(§11) The biotechnological CS was subjected to mutagenesis tests in bacterial cells (bacterial reverse mutation, Ref. OECD 471) which tested the ability of the product to induce the appearance of reverse mutants in auxotrophic strains of E. coli and Salmonella typhimurium.

[4] = test system: auxotrophic strains of Salmonella typhimurium; test: Bacterial reverse mutation test (OECD 471); assay type: cell-based
Protocol: as §4, §11

[5] = test system: rats with Adjuvant Arthritis (AA); test: Adjuvant arthritis (AA) in rats: change in body weight; assay type: in vivo, male Lewis rats; conditions: for increase in body weight relative to that of the healthy controls: 900 mg/kg/day, end of the study
Protocol: as §5, §6, §7, §8, §9, §10
The body weight of the rats was measured before induction of AA (day 0), on days 7, 14 and 21, and at the end of the treatment (day 28). The effect of the treatment on this parameter was evaluated by comparing the weight increases of the different groups during the treatment period.

[6] = daily oral 900 mg/kg b.w. from day 0, day 14
[7] = daily oral 900 mg/kg b.w., 14 days of treatment
[8] = Pre-Treatment (PT): 900 mg/kg/day oral, days −14 to 28, day 0
[9] = Pre-Treatment (PT): 900 mg/kg/day oral, days −14 to 28, day 7
[10] = Pre-Treatment (PT): 900 mg/kg/day oral, days −14 to 28, day 14
[11] = Pre-Treatment (PT): 900 mg/kg/day oral, days −14 to 28, day 21
[12] = Treatment (T): 900 mg/kg/day oral, days 0-28, day 0
[13] = Treatment (T): 900 mg/kg/day oral, days 0-28, day 7
[14] = Treatment (T): 900 mg/kg/day oral, days 0-28, day 14
[15] = Treatment (T): 900 mg/kg/day oral, days 0-28, day 21
[16] = Treatment (T): 900 mg/kg/day oral, days 0-28, day 28
[17] = Pre-Treatment (PT): 900 mg/kg/day oral, days −14 to 28, day 28

Low-molecular-weight chondroitin sulfate sodium salt [LMW-CS]
CRP plasma levels (C reactive protein (CRP); [6]): 548.8 µg/mL
effect of treatment on CRP plasma levels (C reactive protein (CRP); [7]): decreased
clinical signs (Sprague-Dawley rats; 14 days observation): did not show any clinical signs of suffering
mortality (Sprague-Dawley rats; 14 days observation): no mortality occurred
autopsy of tissues and organs (Sprague-Dawley rats; end of the study): did not indicate any signs of toxicity
Arthritis score [1, 8]: 10.0
Arthritis score [1, 9]: 10.1
Arthritis score [1, 10]: 13.1
Arthritis score [1, 11]: 15.8
Arthritis score ([1]; Pre-Treatment (PT): 900 mg/kg/day oral, days −14 to 28, day 28, listed as biotechnological CS, sulfate sodium salt): 19
Arthritis score ([1]; Pre-Treatment (PT): 900 mg/kg/day oral, days −14 to 28, day 28, sulfate sodium salt): 19.0
Arthritis score [1, 12]: 10.0
Arthritis score [1, 13]: 10.0
Arthritis score [1, 14]: 18.1
Arthritis score [1, 15]: 22.7
Arthritis score [1, 16]: 23.0
influence on arthritis score during the study period ([1]; Treatment-only (T) group, 900 mg/kg/day): did not significantly influence
IL-6 plasma levels (interleukin-6 (IL-6); [6]): 233.9 pg/mL
effect of treatment on IL-6 plasma levels (interleukin-6 (IL-6); [7]): decreased
Change in hind paw swelling: [(Dayn/Day0) × 100] − 100 [2, 8]: 0.0%
Change in hind paw swelling: [(Dayn/Day0) × 100] − 100 [2, 9]: 15.4%
Change in hind paw swelling: [(Dayn/Day0) × 100] − 100 [2, 10]: 26.7%
Change in hind paw swelling: [(Dayn/Day0) × 100] − 100 [2, 11]: 46.5%
Change in hind paw swelling: [(Dayn/Day0) × 100] − 100 [2, 17]: 49.7%
oedema developed in the hind paw vs untreated controls ([2]; Pre-treated animals (PT), 900 mg/kg/day): significantly reduced
Change in hind paw swelling: [(Dayn/Day0) × 100] − 100 [2, 12]: 0.0%
Change in hind paw swelling: [(Dayn/Day0) × 100] − 100 [2, 13]: 13.1%
Change in hind paw swelling: [(Dayn/Day0) × 100] − 100 [2, 14]: 34.5%
Change in hind paw swelling: [(Dayn/Day0) × 100] − 100 [2, 15]: 62.8%
Change in hind paw swelling: [(Dayn/Day0) × 100] − 100 [2, 16]: 61.4%
bacterial mutagenicity (reverse mutants) [3]: No significant increase
bacterial mutagenicity (reverse mutants) [4]: No significant increase
Change in body weight: Δ(dayn − day0) [5, 8]: 0.0 g
Change in body weight: Δ(dayn − day0) [5, 9]: 92.96 g
Change in body weight: Δ(dayn − day0) [5, 10]: 107.26 g
Change in body weight: Δ(dayn − day0) [5, 11]: 93.39 g
Change in body weight: Δ(dayn − day0) [5, 17]: 108.63 g
increase in body weight relative to that of the healthy controls ([5]; Pre-treatment (PT)): 73%
Change in body weight: Δ(dayn − day0) [5, 12]: 0.0 g
Change in body weight: Δ(dayn − day0) [5, 13]: 85.19 g
Change in body weight: Δ(dayn − day0) [5, 14]: 89.19 g
Change in body weight: Δ(dayn − day0) [5, 15]: 68.39 g
Change in body weight: Δ(dayn − day0) [5, 16]: 79.78 g
increase in body weight relative to that of the healthy controls ([5]; Treatment alone (T)): 54%
